Experimental data taken from the Kinase Knowledgebase extract (Sharma et al. 2016).

Columns and labels:
ROCK2 = ROCK2 (UniProt O75116); assay: ROCK2 Kinase Inhibition; conditions: concentration not given here
CDK2 = CDK2 (UniProt P24941); assay: Enzyme Assay; conditions: concentration not given here
MAPK14 [1] = molecular target: MAPK14 (UniProt Q16539); assay: p38-alpha Kinase Inhibition; conditions: concentration not given here
EGFR [2] = molecular target: EGFR (UniProt P00533)
EGFR [3] = molecular target: EGFR (UniProt P00533); remark: listed apart in the source
EGFR [4] = molecular target: EGFR (UniProt P00533); conditions: a431
EGFR [5] = molecular target: EGFR (UniProt P00533); conditions: swiss 3t3 fibroblast
MAPK14 [6] = molecular target: MAPK14 (UniProt Q16539); assay: p38 MAP kinase Inhibition Assay
EGFR [7] = molecular target: EGFR (UniProt P00533); remark: listed apart in the source
EGFR (murine) [8] = molecular target: EGFR (murine) (UniProt P00533); conditions: nih3t3
EGFR (murine), sequence (P00533 whole entry, looked up): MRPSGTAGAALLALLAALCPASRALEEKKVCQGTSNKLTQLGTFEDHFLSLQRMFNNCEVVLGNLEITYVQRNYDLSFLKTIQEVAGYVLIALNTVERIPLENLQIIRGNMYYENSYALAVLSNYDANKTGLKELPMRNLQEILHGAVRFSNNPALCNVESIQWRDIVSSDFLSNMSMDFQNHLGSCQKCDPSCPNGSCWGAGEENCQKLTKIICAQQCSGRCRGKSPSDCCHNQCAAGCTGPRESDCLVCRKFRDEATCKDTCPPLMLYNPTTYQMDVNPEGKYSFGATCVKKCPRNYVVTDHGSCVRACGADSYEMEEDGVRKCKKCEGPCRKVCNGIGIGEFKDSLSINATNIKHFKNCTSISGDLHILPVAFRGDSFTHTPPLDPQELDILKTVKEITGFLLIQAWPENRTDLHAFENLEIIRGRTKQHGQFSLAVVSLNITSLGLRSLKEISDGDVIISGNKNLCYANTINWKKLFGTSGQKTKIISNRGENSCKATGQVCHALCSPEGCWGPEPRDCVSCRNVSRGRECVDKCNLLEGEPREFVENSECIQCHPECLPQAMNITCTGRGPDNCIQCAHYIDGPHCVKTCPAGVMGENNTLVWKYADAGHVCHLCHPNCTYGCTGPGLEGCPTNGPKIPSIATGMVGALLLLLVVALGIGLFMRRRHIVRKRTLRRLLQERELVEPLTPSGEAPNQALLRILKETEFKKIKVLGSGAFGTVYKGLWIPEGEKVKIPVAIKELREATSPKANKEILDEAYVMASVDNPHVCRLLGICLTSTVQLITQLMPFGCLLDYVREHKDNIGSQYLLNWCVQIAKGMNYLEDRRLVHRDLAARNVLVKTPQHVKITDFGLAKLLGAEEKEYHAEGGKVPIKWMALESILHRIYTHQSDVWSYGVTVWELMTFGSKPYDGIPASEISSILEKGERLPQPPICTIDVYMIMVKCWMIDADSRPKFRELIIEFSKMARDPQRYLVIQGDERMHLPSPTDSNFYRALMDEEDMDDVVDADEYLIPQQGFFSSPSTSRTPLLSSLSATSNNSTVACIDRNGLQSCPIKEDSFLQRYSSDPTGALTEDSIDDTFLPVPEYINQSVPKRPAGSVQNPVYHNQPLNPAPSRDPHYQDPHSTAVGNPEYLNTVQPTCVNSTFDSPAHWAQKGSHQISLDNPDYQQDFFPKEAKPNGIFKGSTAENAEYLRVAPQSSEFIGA

EGFR [9] = molecular target: EGFR (UniProt P00533); remark: listed apart in the source
EGFR [10] = molecular target: EGFR (UniProt P00533); remark: listed apart in the source
EGFR (mouse) = EGFR (mouse) (UniProt P00533); conditions: mk
MAPK14 [11] = molecular target: MAPK14 (UniProt Q16539); assay: p38 Kinase Inhibition
ROCK2 (human) [12] = molecular target: ROCK2 (human) (UniProt O75116); assay: Assessment of ROCK2 Kinase Activity (Fluorescence Polarization Assay)
ROCK2 (human), sequence (O75116 whole entry, looked up): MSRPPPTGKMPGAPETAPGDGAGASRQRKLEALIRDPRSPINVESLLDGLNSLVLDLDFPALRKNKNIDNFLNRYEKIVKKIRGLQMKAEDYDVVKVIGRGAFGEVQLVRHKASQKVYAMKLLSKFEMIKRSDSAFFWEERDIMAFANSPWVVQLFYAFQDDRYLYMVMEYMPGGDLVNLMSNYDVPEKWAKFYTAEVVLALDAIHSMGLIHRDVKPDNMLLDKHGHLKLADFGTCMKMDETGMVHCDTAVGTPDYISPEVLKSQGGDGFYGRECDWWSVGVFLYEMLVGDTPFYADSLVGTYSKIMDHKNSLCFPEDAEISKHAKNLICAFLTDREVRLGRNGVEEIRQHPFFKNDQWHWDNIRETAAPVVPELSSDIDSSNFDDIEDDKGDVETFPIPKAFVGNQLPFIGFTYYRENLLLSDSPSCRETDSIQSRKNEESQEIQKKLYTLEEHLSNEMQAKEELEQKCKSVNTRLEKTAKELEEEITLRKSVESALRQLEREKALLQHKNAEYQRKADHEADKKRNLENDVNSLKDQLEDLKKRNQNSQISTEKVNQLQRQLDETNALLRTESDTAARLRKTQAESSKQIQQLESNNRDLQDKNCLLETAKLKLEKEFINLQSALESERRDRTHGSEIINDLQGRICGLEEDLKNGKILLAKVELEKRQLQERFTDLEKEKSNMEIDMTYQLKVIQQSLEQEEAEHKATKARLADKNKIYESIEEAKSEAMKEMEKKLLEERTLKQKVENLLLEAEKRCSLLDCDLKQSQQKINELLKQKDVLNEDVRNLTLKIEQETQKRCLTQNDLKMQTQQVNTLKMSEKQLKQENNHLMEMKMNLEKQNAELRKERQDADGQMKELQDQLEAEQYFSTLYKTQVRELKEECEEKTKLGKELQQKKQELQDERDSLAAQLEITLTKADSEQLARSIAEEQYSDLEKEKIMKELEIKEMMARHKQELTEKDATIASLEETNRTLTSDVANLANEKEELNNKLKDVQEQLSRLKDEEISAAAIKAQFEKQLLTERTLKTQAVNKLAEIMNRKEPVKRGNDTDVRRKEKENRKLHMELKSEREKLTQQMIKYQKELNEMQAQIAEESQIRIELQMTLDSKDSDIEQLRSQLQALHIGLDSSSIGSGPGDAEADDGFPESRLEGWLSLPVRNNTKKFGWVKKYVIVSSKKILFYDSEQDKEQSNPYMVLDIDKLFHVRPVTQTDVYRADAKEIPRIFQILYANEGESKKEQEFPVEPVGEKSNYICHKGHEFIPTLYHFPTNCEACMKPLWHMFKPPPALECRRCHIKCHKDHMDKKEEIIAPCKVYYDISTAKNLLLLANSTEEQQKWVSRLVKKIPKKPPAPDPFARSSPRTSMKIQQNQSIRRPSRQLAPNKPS

EGFR [13] = molecular target: EGFR (UniProt P00533); remark: listed apart in the source
ROCK2 (human) [14] = molecular target: ROCK2 (human) (UniProt O75116); assay: Assessment of ROCK2 Kinase Activity (ProQinase Setup)
EGFR (human) [15] = molecular target: EGFR (human) (UniProt P00533); conditions: A431
EGFR (human), sequence (P00533 whole entry, looked up): as the sequence (P00533 whole entry, looked up) above

MAPK14 [16] = molecular target: MAPK14 (UniProt Q16539); assay: p38-alpha Inhibition
EGFR (Balb/c mice) = EGFR (Balb/c mice) (UniProt P00533)
EGFR (murine) [17] = molecular target: EGFR (murine) (UniProt P00533); conditions: nih3t3; remark: listed apart in the source
PIK3CA (human) [18] = molecular target: PIK3CA (human) (UniProt P42336); assay: Assessment of PI3K Dependent Phosphorylation of p-AKT(T308) in PC3 Cells; conditions: pc-3
MAPK14 (human) = MAPK14 (human) (UniProt Q16539); assay: Inhibition of TNF-alpha Production in PBMC Cells
PIK3CA (human) [19] = molecular target: PIK3CA (human) (UniProt P42336); assay: Assessment of PIK3CA Kinase Activity in NZB5 Cells
EGFR [20] = molecular target: EGFR (UniProt P00533); remark: listed apart in the source
EGFR [21] = molecular target: EGFR (UniProt P00533); remark: listed apart in the source
EGFR [22] = molecular target: EGFR (UniProt P00533); remark: listed apart in the source
EGFR (human) [23] = molecular target: EGFR (human) (UniProt P00533)
EGFR (human) [24] = molecular target: EGFR (human) (UniProt P00533); conditions: a431

EGFR, sequence (P00533 whole entry, looked up): as above
ROCK2, sequence (O75116 whole entry, looked up): as the sequence (O75116 whole entry, looked up) above

CN1CCCC1CCn1cc(C2=C(c3c[nH]c4ccccc34)C(=O)NC2=O)c2ccccc21 (centres undefined)
activity (ROCK2): 82% | activity (CDK2): 25% | activity (MAPK14 [1]): 86%

CN(C)c1ccc2ncnc(Nc3cccc(Br)c3)c2c1
IC50 (EGFR [2]): 0.084 µM | IC50 (EGFR [3]): 0.12 µM

COc1ccc2[nH]c3c(-c4ccccc4OC)nc4c(c3c2c1)C(=O)NC4=O
IC50 (EGFR [4]): > 30 µM | IC50 (EGFR [5]): > 30 µM

c1cnc2c(c1)ccn2CCc1ccncc1
IC50 (MAPK14 [6]): 177 µM

c1ccc(CNc2ncnc3ncccc23)cc1
IC50 (EGFR [3]): > 10 µM

Nc1cc2ncnc(Nc3cccc(Br)c3)c2cn1
IC50 (EGFR [7]): 0.11 µM

Cc1n[nH]cc1C(=O)Nc1ccc(C(F)(F)F)cc1
IC50 (EGFR (murine) [8]): > 100 µM

c1ccc2c(Nc3ccc4[nH]ccc4c3)ncnc2c1
IC50 (EGFR [9]): 0.3 µM

CNc1ccc2ncnc(Nc3cccc(Br)c3)c2c1
IC50 (EGFR [3]): 0.007 µM

Cc1[nH]c2ncnc(N3CCCc4ccccc43)c2c1C
IC50 (EGFR [10]): 2.69 µM

COc1cc(O)c2c(=O)c(-c3cccc(Cl)c3)cn(C)c2c1
IC50 (EGFR (mouse)): 2.83 µM

COc1cc2ncnc(N3CCN(C(=S)NCc4ccccc4)CC3)c2cc1OC
IC50 (MAPK14 [11]): > 30 µM

CC(N)c1ccc(C(=O)Nc2ccncc2)cc1-c1cccc(C(=O)OCc2ccncc2)c1 (centres undefined)
IC50 (ROCK2 (human) [12]): < 0.1 µM

Cc1ccc(S(=O)(=O)CCOC(=O)c2cccc(-c3cc(C(=O)Nc4ccncc4)ccc3C(C)N)c2)cc1 (centres undefined)
IC50 (ROCK2 (human) [12]): 0.1 to 1 µM

Cc1noc(C)c1C(=O)Nc1ccc(C(F)(F)F)cc1
IC50 (EGFR (murine) [8]): > 100 µM

CCNC(=O)Nc1nc2nc(NCCCCN(CC)CC)ncc2cc1-c1cc(OC)cc(OC)c1
IC50 (EGFR [13]): > 50 µM

NCc1ccc(C(=O)Nc2ccncc2F)cc1-c1cccc(CC(=O)OCC2CCCC2)c1
IC50 (ROCK2 (human) [14]): 0.1 to 1 µM

C[C@H](Nc1ncnc2ccccc12)c1ccccc1
IC50 (EGFR (human) [15]): > 10 µM

CCNC(=O)Nc1nc2nc(NCCCN3CCN(C)CC3)ncc2cc1-c1cc(OC)cc(OC)c1
IC50 (EGFR [13]): > 50 µM

ON1=CC=C(C=C1)c2[nH]c3cccnc3c2c4ccc(F)cc4
IC50 (MAPK14 [16]): 2.5 µM

COc1cc2ncnc(Nc3cccc(C#N)c3)c2cc1OC
LD50 (EGFR (Balb/c mice)): > 153 mg/kg | IC50 (EGFR (murine) [17]): 0.2 µM

CSc1c(-c2ccncc2)nc(-c2ccc(NC(=O)Nc3ccc(N4CCOCC4=O)cc3)cc2)nc1N1CCOCC1
IC50 (PIK3CA (human) [18]): 0.291 µM

COc1cc2c(Nc3cc(NC(=O)c4cccc(N(C)C)c4)ccc3C)ncnc2c(OC)c1OC
IC50 (MAPK14 (human)): 5.2 µM

Nc1ccc(-c2cc3c(N4CCc5ccccc54)ncnc3[nH]2)cc1
IC50 (EGFR [10]): 0.21 µM

COc1cc(O)c2c(=O)c(-c3cccc(Cl)c3)cn(CCc3ccccc3)c2c1
IC50 (EGFR (mouse)): 4.93 µM

c1cncc(CCc2c[nH]c3ccccc23)c1
IC50 (MAPK14 [6]): 1000 µM

Cc1ccc([N+](=O)[O-])cc1S(=O)(=O)N(C)N=Cc1cnn2cccc(Br)c12
IC50 (PIK3CA (human) [19]): > 20 µM

CN(C)CCCCNc1cc2ncnc(Nc3cccc(Br)c3)c2cn1
IC50 (EGFR [7]): 0.038 µM

COc1cc2ncnc(Nc3ccc4c(ccn4Cc4ccccc4)c3)c2cc1OC
IC50 (EGFR [9]): 10 µM

COc1cc2ncnc(Nc3ccc4[nH]ccc4c3)c2cc1OC
IC50 (EGFR [9]): 0.003 µM

COc1ccc(N2Cc3cnc(Nc4ccc(O)cc4)nc3N(c3ccccc3)C2=O)cc1
IC50 (EGFR [20]): 0.13 µM

c1ccc(Cn2ccc3cc(Nc4ncnc5ccccc45)ccc32)cc1
inhibition (EGFR [9]; concentration not given here): 74%

NC(=O)c1cc2ccc(O)c(O)c2cn1
IC50 (EGFR [21]): > 100 µM

COc1ccc(C=C2C(=O)Nc3ccccc32)cc1F
IC50 (EGFR [22]): 3.7 to 37 µM

COc1cc2c(Nc3cc(NC(=O)c4cccc(N(C)C)c4)ccc3C)ncnc2cc1OCCCN1CCOCC1
IC50 (MAPK14 (human)): 2 µM

CN(C)c1ccc(C=C2C(=O)Nc3ccccc32)c2ccccc12
IC50 (EGFR [22]): 3.2 to 32 µM

COc1cc(O)c2c(=O)c(-c3cccc(Cl)c3)c[nH]c2c1
IC50 (EGFR (mouse)): 11.4 µM

COn1c(-c2ccncc2)c(-c2ccc(F)cc2)c2ncccc21
IC50 (MAPK14 [16]): 0.068 µM

CN(C)CCCn1c(SSc2c(C(=O)Nc3ccccc3)c3ccccc3n2CCCN(C)C)c(C(=O)Nc2ccccc2)c2ccccc21
IC50 (EGFR (human) [23]): 26 µM

COc1ccc(Nc2ncc3c(n2)N(c2ccccc2)C(=O)N(c2ccc(OC)cc2)C3)cc1
IC50 (EGFR [20]): 0.18 µM

N#C/C(=C\c1ccc(O)c(O)c1)C(=O)O
Ki (EGFR (human) [24]): 23.6 µM

COc1cc2ncnc(N3CCN(C(=S)NCc4ccc5c(c4)OCO5)CC3)c2cc1OC
IC50 (MAPK14 [11]): > 30 µM

Nc1cc2ncnc(NCc3ccccc3)c2cn1
IC50 (EGFR [3]): 0.578 µM

COC(=O)c1cc2c(-c3cc(C(=O)Nc4ccncc4)ccc3C(C)N)cccc2[nH]1 (centres undefined)
IC50 (ROCK2 (human) [12]): 0.1 to 1 µM
